Key:
[1] = Antioxidant activity of active ingredients alone and combined (FIG. 1); details: for antioxidant activity when combined with Vitamin C and Vitamin E: polyphenol derivatives combined with Vitamin C and Vitamin E; for antioxidant activity relative to vehicle: ingredient alone, control = vehicle (mixture of ethanol and macrogol); for synergistic effect on antioxidant activity: ingredients combined
[2] = phospholipidic membranes; cited from earlier work
human skin = details: cited from earlier work
[3] = gastrointestinal tract and skin; cited from earlier work
[4] = test system: human polymorphonuclear leukocytes; details: cited from earlier work
[5] = test system: seasonal allergic rhinoconjunctivitis; details: oral supplementation; cited from earlier work
[6] = test system: human keratinocyte cell lines; details: cited from earlier work
mild atopic dermatitis = details: 0.3% rosmarinic acid emulsion, topical application; cited from earlier work
[7] = cited from earlier work

O=C(O)/C=C/c1ccc(O)c(O)c1 [caffeic acid, 3,4-dihydroxycinnamic acid]
antioxidant activity when combined with Vitamin C and Vitamin E [1]: stronger antioxidant activity (more than twice)
protection from UV-induced peroxidation [2]: protect phospholipidic membranes from UV-induced peroxidation
protection from UVB-induced erythema (human skin): protect human skin from UVB-induced erythema

O=C1O[C@H]([C@@H](O)CO)C(O)=C1O [Vitamin C, ascorbic acid]
antioxidant activity relative to vehicle [1]: more than twice as much antioxidant activity as the vehicle
synergistic effect on antioxidant activity [1]: synergistic effect

Vitamin E
antioxidant activity relative to vehicle [1]: more than twice as much antioxidant activity as the vehicle

O=C(/C=C/c1ccc(O)c(O)c1)O[C@H](Cc1ccc(O)c(O)c1)C(=O)O [rosmarinic acid, alpha-o-caffeoyl-3,4-dihydroxyphenyl lactic acid]
antioxidant activity when combined with Vitamin C and Vitamin E [1]: stronger antioxidant activity (more than twice)
absorption [3]: well absorbed through the gastrointestinal tract and the skin
leukotriene B4 production [4]: reduce leukotriene B4 production
prostaglandin E2 production [4]: augment prostaglandin E2 production
treatment of seasonal allergic rhinoconjunctivitis [5]: effective treatment for seasonal allergic rhinoconjunctivitis
photoprotective effect against UVA-induced alterations [6]: photoprotective effects against alterations induced by UVA exposure
symptoms of mild atopic dermatitis (mild atopic dermatitis): improves some symptoms of the disease including the erythema, transepidermal water loss, xerosis and pruritus

O=C(CCc1ccc(O)cc1)c1c(O)cc(O)cc1O [phloretin, Phloretin]
synergistic effect on antioxidant activity [1]: synergistic effect
antioxidant activity when combined with Vitamin C and Vitamin E [1]: stronger antioxidant activity (more than twice)
solubility in ethanol [7]: very soluble in ethanol
solubility in water [7]: insoluble in water

COc1cc(/C=C/C(=O)O)ccc1O [ferulic acid, Ferulic acid]
synergistic effect on antioxidant activity [1]: synergistic effect
antioxidant activity when combined with Vitamin C and Vitamin E [1]: stronger antioxidant activity (more than twice)
behaviour at acidic pH ([7]; acidic pH): precipitates into crystals

From patent US9241887B2, “Systems and methods for skin rejuvenation” (Sesvalia USA, LLC, priority 2009, dated 2016)
